In ChEMBL document CHEMBL1127373 (J Med Chem, 1994):

Target: Neuronal acetylcholine receptor
Assay: Tested for the binding affinity against neuronal nicotinic acetylcholine receptors from whole rat brain

| SMILES | Ki [nM] |
| --- | --- |
| CC[C@H]1C[C@@H](c2cccnc2)N(C)C1 | 50.2 |
| C[C@H]1CC[C@@H](c2cccnc2)N1C | 34.9 |
| CN1C[C@@H](CF)C[C@H]1c1cccnc1 | 11.1 |
| CN1[C@H](c2ccccc2)CC[C@H]1c1cccnc1 | 3350 |
| CN1C[C@@H](O)C[C@H]1c1cccnc1 | 27.6 |
| C[C@@H]1CC[C@@H](c2cccnc2)N1C | 1210 |
| CN1C[C@@H](CO)C[C@H]1c1cccnc1 | 158 |
| CN1CCC(CF)[C@H]1c1cccnc1 (some centres not stated) | 98.5 |
| COCC1CCN(C)[C@@H]1c1cccnc1 (some centres not stated) | 2030 |
| CSC[C@H]1C[C@@H](c2cccnc2)N(C)C1 | 493 |
| CN1C[C@@H](OS(C)(=O)=O)C[C@H]1c1cccnc1 | 364 |
| COC[C@H]1C[C@@H](c2cccnc2)N(C)C1 | 510 |
| CN1C[C@H](C#N)C[C@H]1c1cccnc1 | 82 |
| CCCC[C@@H]1CC[C@@H](c2cccnc2)N1C | 1380 |
| CN1CCC(CO)[C@H]1c1cccnc1 (some centres not stated) | 619 |
| CO[C@H]1C[C@@H](c2cccnc2)N(C)C1 | 36.6 |
| CN1C[C@@H](CC#N)C[C@H]1c1cccnc1 | 52 |
| CC1CN(C)[C@H](c2cccnc2)C1C (some centres not stated) | 96.4 |
| CC(=O)O[C@H]1C[C@@H](c2cccnc2)N(C)C1 | 103 |
| CN1C[C@@H](Cc2ccccc2)C[C@H]1c1cccnc1 | 119 |
| CN1C[C@H](CO)C[C@H]1c1cccnc1 | 294 |
| CN1[C@@H](c2ccccc2)CC[C@H]1c1cccnc1 | 1240 |
